Measured values from publication PMC12254266, “Multicolored sequential resonance energy transfer for detection of simultaneous ligand binding at G protein-coupled receptors” (Nature Communications, 2025).
Values joined by “and” are separate entries in the source; they are usually repeats but may differ in a detail not shown here. Equal values may be shown once.

What was measured:
[1] = molecular target: T1, FFA1 (Homo sapiens, UniProt O14842); experiment: Ca2+ mobilisation (Fura2) in Flp-In T-REx 293 cells expressing Nluc-FFA1, FFA1-Nluc or untagged FFA1; format: cell-based; parameters: expressed in transfected cells; details: for pEC50: Ca2+ data, mean±SEM; for pEC50 / EMax: NR = No response; for EMax: percentage of response to 10 μM T360
Procedure, shortened: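 520 nm emission read at 340 and 380 nm excitation over 90 s spanning compound addition. Response taken as peak 340/380 ratio after subtracting pre-addition ratios.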

[2] = molecular target: T1, FFA1; experiment: NanoBiT arrestin-3 recruitment in HEK293T cells; format: cell-based; parameters: expressed in transfected cells; host or cells: HEK293T, transient; details: for Arrestin recruitment (% TUG-905): technical duplicate; for EMax (% TUG-905) arrestin-3 recruitment: percentage of the response to 10 μM TUG-905; for EMax (% TUG-905) arrestin-3 recruitment / pEC50 arrestin-3 recruitment: ± SEM; for pEC50 arrestin-3 recruitment: N=3
Protocol: For arrestin-3 recruitment assays, HEK293T cells were transfected with FFA1 receptor and a bystander NanoBiT split luciferase arrestin-3 recruitment biosensor. Cells were transfected and plated simultaneously in a reverse transfection protocol into a poly-D-lysine coated white 96-well plate. Per well, 60,000 cells were transfected with 5 ng plasmid expressing LgBiT with a N-terminal Lyn11 plasma membrane localisation tag, 5 ng plasmid expressing bovine arrestin-3 fused at its N-terminal to SmBiT tag and 30 ng plasmid expressing the human FFA1 receptor. Total DNA was made up to 100 ng total/well with empty pcDNA3 vector and transfected to cell suspension with 0.6 µg/well PEI. Following transfection cells were cultured for 24 h before use. On the day of assay, cells were washed twice with HBSS and incubated in HBSS for 30 min at 37 °C. NanoGlo substrate was added at a final 1:800 dilution and incubated in the dark for 10 min at 37 °C. […] Raw luminescence values were divided by baseline signal (average of first 5 data points prior to compound addition) and vehicle measurements subtracted from agonist treatment. Area under curves were calculated and concentration response curves plotted.

[3] = molecular target: FFA1-Nluc (Homo sapiens, UniProt O14842); experiment: NanoBRET binding (saturation, kinetics) at C terminal Nluc tagged FFA1; parameters: expressed in transfected cells; details: FFA1-Nluc, 95% confidence interval in parentheses
Protocol: Nluc-FFA1 or FFA1-Nluc Flp-In T-REx 293 cells were plated at 50,000 cells per well in poly-D-lysine coated white 96-well plates. Cells were cultured for 24 h in the plate before medium was replaced with medium containing 100 ng/mL of doxycycline to induce receptor expression. After culturing for a further 24 h, medium was removed, cells were washed with HBSS and incubated in HBSS for 30 min. To start the assay, NanoGlo substrate (Promega, N1110) was added to the cells at a 1:800 final dilution and incubated for 10 min at 37 °C. For endpoint assays, including both saturation and competition binding, test ligands were then added, including both fluorescent and unlabelled competing ligands as indicated, and plates incubated for a further 5 min at 37 °C. NanoBRET was then quantified in a CLARIOstar microplate reader (BMG Labtech) by measuring luminescent emission with the monochrometer set for the Nluc donor at 450–60 nm, and acceptor luminescent emission 540–60 nm (NBD), 600–80 nm (Cy3.5) or 690–100 nm (SulfoCy5), depending on which fluorophore was being tested. The acceptor/donor BRET ratio was then taken as a measure of fluorophore binding. For kinetic on then off NanoBRET experiments plates were washed the same way and substrate was added to the same concentration. However, 10 min after substrate was added plates were inserted into the CLARIOstar microplate reader set to 25 °C to take repeated measurements of luminescent emission for both the donor and the acceptor fluorophore being used. After 5 min of background measurements, the indicated concentration of fluorescent ligand was added using the plate reader injector and luminescent emission was monitored for ~10 min before the reader was paused to manually add a high concentration of appropriate competing ligand to initiate dissociation. The plate was returned to the reader and luminescence measurements were continued for a further 30 min to monitor dissociation of the fluorescent ligand. For kinetic experiments using multiple concentrations of fluorescent ligand, cells were placed in the plate reader immediately after the addition of Nano-Glo substrate and luminescent measurements were taken. After 5 min, the reader was paused to add the indicated concentrations of fluorescent ligand, before measurements were continued. To set non-specific binding for kinetic experiments, the indicated competing ligand was added 5 min before the addition of the fluorescent ligand.

[4] = log[Ligand] -6, single technical replicates
[5] = log[Ligand] -6.5, single technical replicates
[6] = log[Ligand] -7, single technical replicates
[7] = log[Ligand] -8, single technical replicates
[8] = log[Ligand] -9, single technical replicates
[9] = log[Ligand] -5, single technical replicates
[10] = log[Ligand] -5.5, single technical replicates

T1 sequence (O14842 whole entry): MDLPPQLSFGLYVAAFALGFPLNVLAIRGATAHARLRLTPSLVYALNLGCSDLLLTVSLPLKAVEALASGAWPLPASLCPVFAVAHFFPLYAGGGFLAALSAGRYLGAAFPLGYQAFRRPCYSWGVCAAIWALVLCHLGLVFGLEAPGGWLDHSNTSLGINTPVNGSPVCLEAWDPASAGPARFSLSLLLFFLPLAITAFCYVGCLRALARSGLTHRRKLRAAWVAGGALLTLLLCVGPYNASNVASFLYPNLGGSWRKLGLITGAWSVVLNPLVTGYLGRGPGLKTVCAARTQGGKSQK
Sequence of FFA1-Nluc (O14842 whole entry): as above

pEC50 [1]	EMax [1] [%]	EMax (% TUG-905) arrestin-3 recruitment [2] [%]	pEC50 arrestin-3 recruitment [2]	SMILES	Ca2+ Response as a % of T360 Response [1, 4]	Ca2+ Response as a % of T360 Response [1, 5]	Ca2+ Response as a % of T360 Response [1, 6]	Ca2+ Response as a % of T360 Response [1, 7]	Ca2+ Response as a % of T360 Response [1, 8]	Arrestin recruitment (% TUG-905) ([2]; log[ligand] -6)	Arrestin recruitment (% TUG-905) ([2]; log[ligand] -6.5)	Arrestin recruitment (% TUG-905) ([2]; log[ligand] -7.5)	Ca2+ Response as a % of T360 Response [1, 9]	Ca2+ Response as a % of T360 Response [1, 10]	further results
7.48±0.31	105±5	66 ± 8	8.9 ± 0.4	COc1ccc(CCCC(C)(C)C)c(N2CCC(COc3cccc(C(CC(=O)O)C4CC4)c3)CC2)c1.O=C(O)C(F)(F)F (stereo not drawn) [T360]	107.28% and 92.72% and 101.13% and 98.87% and 101.25% and 98.75%	78.71% and 83.08% and 86.23% and 89.07% and 107.10% and 103.71%	50.40% and 57.83% and 53.05% and 49.34% and 105.47% and 92.83%	4.55% and 3.96% and 1.45% and 1.23% and 56.26% and 55.08%	6.44% and -16.92% and -0.13% and -0.73% and -0.82% and -0.55%	47.2004 % TUG-905 and 63.2995 % TUG-905 and 73.3709 % TUG-905 and 81.6896 % TUG-905 and 75.2182 % TUG-905 and 56.718 % TUG-905	57.9984 % TUG-905 and 49.7595 % TUG-905 and 71.7903 % TUG-905 and 68.6055 % TUG-905 and 72.4316 % TUG-905 and 77.5018 % TUG-905	57.0191 % TUG-905 and 67.1382 % TUG-905 and 59.7164 % TUG-905 and 62.616 % TUG-905 and 83.9201 % TUG-905 and 49.002 % TUG-905			Ca2+ Response as a % of T360 Response ([1]; log[Ligand] -7.5, single technical replicates): 52.48% and 51.74% and 26.53% and 33.96% and 89.83% and 84.58%; Ca2+ Response as a % of T360 Response ([1]; log[Ligand] -10, single technical replicates): -18.12% and -11.48% and -0.62% and 0.09% and -1.11% and 0.64%; Arrestin recruitment (% TUG-905) ([2]; log[Ligand] -7): 60.5575 % TUG-905 and 49.7987 % TUG-905 and 50.2806 % TUG-905 and 80.5606 % TUG-905 and 71.6469 % TUG-905 and 70.6208 % TUG-905
7.58±0.37	108±8	54 ± 6	9.1 ±0.1	COc1ccc(C(=O)N(CC(C)(C)C)c2cccc(C)n2)c(N2CCC(COc3cccc(C(CC(=O)O)C4CC4)c3)CC2)c1.O=C(O)C(F)(F)F (stereo not drawn) [Cpd 6h, reference compound]	71.8152% and 70.2762% and 114.0711% and 118.1782% and 101.8675% and 96.5850%	60.3759% and 123.2785% and 113.4233% and 101.5371% and 93.1451%	63.1956% and 51.7459% and 118.1727% and 120.9922% and 92.4678% and 86.2833%	10.9661% and -4.3988% and 87.5826% and 74.3785% and 6.7799% and 2.9748%	-2.3895% and -2.3898% and 3.1637% and 3.9796% and -0.4916% and 4.7706%	78.0249 % TUG-905 and 64.444 % TUG-905 and 40.7503 % TUG-905 and 51.9792 % TUG-905 and 61.8079 % TUG-905 and 63.543 % TUG-905	82.3608 % TUG-905 and 53.7805 % TUG-905 and 51.6658 % TUG-905 and 54.0552 % TUG-905 and 67.7023 % TUG-905 and 49.6983 % TUG-905	66.0536 % TUG-905 and 57.1103 % TUG-905 and 48.5714 % TUG-905 and 47.0829 % TUG-905 and 58.219 % TUG-905 and 65.2186 % TUG-905	84.6341% and 118.5422% and 131.5391% and 131.6815%	110.3362% and 90.2944% and 104.2328% and 116.7691% and 104.8460% and 102.3011%	Arrestin recruitment (% TUG-905) ([2]; log[ligand] -8): 69.0414 % TUG-905 and 63.7801 % TUG-905 and 51.8356 % TUG-905 and 46.0645 % TUG-905 and 48.8783 % TUG-905 and 52.0275 % TUG-905
6.47±0.16	73±9	91 ± 6	7.5 ± 0.4	Cc1cc(OCCCNC(=O)CCCN2\C(=C/C=C/C=C/C3=[N+](C)c4ccc(S(=O)(=O)[O-])cc4C3(C)C)C(C)(C)c3ccccc32)ccc1-c1cccc(COc2ccc(CCC(=O)O)c(F)c2)c1 [TUG-2591]	62.82% and 60.50% and 58.53% and 87.03% and 71.98% and 71.50% and 53.51% and 60.26% and 56.70%	34.81% and 37.98% and 35.96% and 31.33% and 37.74% and 35.87% and 21.49% and 18.21% and 19.57%	17.82% and 28.31% and 29.67% and 8.27% and 1.38% and 7.74% and -0.10% and 0.12% and -1.53%	10.54% and 11.17% and 19.68% and 8.20% and 7.07% and 9.22% and 0.11% and 1.85% and 0.30%	1.04% and 5.22% and 4.78% and 4.50% and 4.79% and 3.13% and 2.97% and -0.0331% and -1.56%				61.66% and 51.52% and 46.84% and 86.56% and 82.15% and 71.83% and 71.15% and 53.72%	62.71% and 47.16% and 58.62% and 85.53% and 80.90% and 77.51% and 55.09% and 51.22%	Ca2+ Response as a % of T360 Response ([1]; FFA1-Nluc cells, log[ligand] -6.5, technical replicates): 55.49% and 52.86% and 28.95% and 51.39% and 72.16% and 71.58% and 70.75% and 43.70% and 49.38%; Ca2+ Response as a % of T360 Response ([1]; FFA1-Nluc cells, log[ligand] -7, technical replicates): 8.16%; Ca2+ Response as a % of T360 Response ([1]; Nluc-FFA1 cells, log[ligand] -6.5, technical replicates): 34.81% and 37.98% and 35.96% and 31.33% and 37.74% and 35.87% and 21.49% and 18.21% and 19.57%; Ca2+ Response as a % of T360 Response ([1]; Nluc-FFA1 cells, log[ligand] -7, technical replicates): 17.82% and 28.31% and 29.67% and 8.27% and 1.38% and 7.74% and -0.10% and 0.12%; Ca2+ Response as a % of T360 Response ([1]; untagged FFA1 cells, log[ligand] -6.5, technical replicates): 69.40% and 67.64% and 73.36% and 82.87% and 85.96% and 73.97% and 51.16% and 43.14% and 56.15% and 83.71% and 86.53% and 111.93%; Kd ([3]; read-out: Kd, saturation BRET binding): 23 nM; BMax, saturation BRET binding ([3]; specific BRET): 0.035 (0.032−0.038)
